Measured values taken from ChEMBL document CHEMBL1156829 (Proc Natl Acad Sci U S A, 2008).

Legend:
[1] = NOVARTIS: Cytotoxicity against human hepatocellular carcinoma cell line (Huh7); type: toxicity, cell-based, Huh-7; details: Huh7 cells (hepatocellular carcinoma cell line)
[2] = system: Plasmodium falciparum; assay: NOVARTIS: Inhibition of Plasmodium falciparum 3D7 (drug-susceptible) proliferation in erythrocyte-based infection assay; type: functional, organism-based; details: Plasmodium falciparum, 3D7
[3] = system: Plasmodium falciparum; assay: NOVARTIS: Inhibition of Plasmodium falciparum W2 (drug-resistant) proliferation in erythrocyte-based infection assay; type: functional, organism-based; details: Plasmodium falciparum, W2; read-out: EC50

Row | SMILES | CC50 [1] | EC50 [2] | EC50 [3]
1 | CN(C)Cc1c(O)ccc2oc(Cc3ccccc3)cc12 | 20100 nM | 219 nM | 59 nM
2 | Nc1c(Cl)c(Cl)nc(C(Cl)(Cl)Cl)c1Cl | > 100000 nM | 448 nM | 286 nM
3 | CC(=O)Nc1nc(C)c(-c2csc(Nc3ccc(Cl)cc3)n2)s1 | 34400 nM | 140 nM | 97.8 nM
4 | COC(=O)c1ccc(C2C3=C(O)CC(c4ccc(F)cc4)CC3=Nc3ccccc3N2C(=O)c2ccccc2)cc1 (centres undefined) | > 100000 nM | 332 nM | 290 nM
5 | COc1ccc(C(c2ccc(N(C)C)cc2)c2ccc(N(C)C)cc2)cc1 | > 100000 nM | 353 nM | 277 nM
6 | COc1cc(C(=O)N2N=C(c3c(-c4ccccc4)c4cc(Br)ccc4[nH]c3=O)CC2c2cccc([N+](=O)[O-])c2)cc(OC)c1OC (centres undefined) | > 100000 nM | 362 nM | 288 nM
7 | C(=NNc1nc2ccccc2[nH]1)c1ccc2c(c1)OCO2 | > 100000 nM | 184 nM | 289 nM
8 | CCOC(=O)C1=C(C)NC2=C(C(=O)CC(C)(C)C2)C1c1cc(I)sc1SC (centres undefined) | > 100000 nM | 798 nM | 287 nM
9 | COc1cccc(C(=O)NCc2nnc(S)n2-c2ccc(Cl)c(Cl)c2)c1 | > 100000 nM | 275 nM | 273 nM
10 | O=C(/C=C/c1c[nH]cn1)N1CCC(n2c(CC3CCCC3)nc3cccnc32)CC1 | > 10000 nM | > 1670 nM | 28.7 nM
11 | Cc1ccn2c(NC(C)(C)CC(C)(C)C)c(-c3ccccc3OC(=O)N(C)C)nc2c1 | > 10000 nM | 576 nM | 28.5 nM
12 | CCc1ccccc1NC(=O)C1c2ccccc2C(=O)N(CC(C)C)C1c1cccs1 (centres undefined) | > 97200 nM | 364 nM | 270 nM
13 | COc1ccc(NC2=C(N3CCCCC3)C(=O)c3ccccc3C2=O)cc1 | 12600 nM | 33.1 nM | 35 nM
14 | COc1ccc(C2CC(=O)C3=C(C2)NC(C)=C(C(=O)OC2CCCCC2)C3c2cccc(C)c2)cc1OC (centres undefined) | > 100000 nM | 837 nM | 281 nM
15 | CCOC(=O)c1cnc2ccc(Cl)cc2c1NCCCN(C)C | 48200 nM | 826 nM | 135 nM
16 | CC1=CC(=Cc2sc3ccccc3[n+]2C)C=C(C)O1 | 8350 nM | 31.3 nM | 23.7 nM
17 | COc1ccc(C2CC(=O)C3=C(C2)NC(C)=C(C(=O)OC(C)C)C3c2cccc(Br)c2)cc1OC (centres undefined) | 14700 nM | 234 nM | 41.6 nM

Row | SMILES | CC50 [1] | EC50 [2] | EC50 [3]
18 | COc1cc2c(OC3OCC(OC)C(OC)C3O)c3c(c(-c4ccc5c(c4)OCO5)c2cc1OC)C(=O)OC3 (centres undefined) | > 10000 nM | 81.7 nM | 28.3 nM
19 | O=C(Nc1ccc(C(=O)Nc2ccc(C3=NCCCN3)cc2)cc1)Nc1ccc(C2=NCCCN2)cc1 | > 7280 nM | 34.4 nM | 20.4 nM
20 | O=C(NC1CCN(Cc2ccccc2)CC1)c1cc(-c2ccc(F)cc2)cc(-n2cnnn2)c1 | 45000 nM | 126 nM | 126 nM
21 | COc1ccc(-c2cc(C(F)(F)F)n3ncc(C(=O)Nc4cccc(Cl)c4Cl)c3n2)cc1OC | > 100000 nM | 2610 nM | 275 nM
22 | Oc1ccc(-c2ccc3c(c2)OCO3)cc1CNCC1CC2C=CC1C21CC1 (centres undefined) | > 100000 nM | 1110 nM | 274 nM
23 | O=C(CSc1nc(-c2ccccc2Cl)ns1)Nc1ccc2c(c1)OCCO2 | > 100000 nM | 593 nM | 273 nM
24 | CCN(CC)c1ccc(C=NNC(=O)c2ccc(Nc3nc(-c4ccccc4)cs3)cc2)c(O)c1 | 20100 nM | 151 nM | 54.8 nM
25 | CC(C)(C)CC(C)(C)c1ccc(O)c(CN2CCN(CCC#N)CC2)c1 | > 100000 nM | 1290 nM | 272 nM
26 | COc1ccc(-n2nc3c(c2NC(=O)C=Cc2cc(OC)c(OC)c(OC)c2)CSC3)cc1 | > 100000 nM | 392 nM | 294 nM
27 | CCCCC(CC)C(=O)N1CCN(C(CC)c2nc3ccccc3c(=O)n2C)CC1 (centres undefined) | > 100000 nM | 374 nM | 294 nM
28 | CCn1c(CNc2ccc(Cl)cc2)nnc1SCC(=O)Nc1cccc(C)c1C | > 10000 nM | > 1250 nM | 26.7 nM
29 | CN(C)CCN1CCN(c2cccc(-c3cccc4cccnc34)n2)CC1 | 18800 nM | 18 nM | 55.2 nM
30 | CCOC(=O)c1ccc(OCC2c3cc(OC)c(OC)cc3CCN2C(=O)Nc2ccc(Cl)cc2)cc1 (centres undefined) | > 100000 nM | 1970 nM | 292 nM
31 | Oc1ccc(C2Nc3ccc4ccccc4c3C3C=CCC32)cc1 (centres undefined) | > 100000 nM | 812 nM | 292 nM
32 | Clc1ccc(C[n+]2cc(-c3ccccc3)n3c2CCC3)cc1Cl | > 55700 nM | 499 nM | 158 nM
33 | Oc1ccc(-c2ccccc2)cc1CNCCCN1CCOCC1 | > 10000 nM | 706 nM | 28.4 nM
